Entries after “also recorded” stand apart in the source; their conditions may differ. Ends that are not written are not given here. Peptide text beside a SMILES is read from it.
What was measured:
Type in all cases: cell-based, Escherichia coli
[1] = test system: E. coli K-12 BW25113 bearing the metagenomic plasmid library; experiment: Functional metagenomic screen of a soil library, gradient plate selection
[2] = test system: 38 AMP-adapted E. coli K-12 BW25113 lines; experiment: Cross-resistance of AMP-resistant lines (relative MIC); conditions: for Relative MIC (MICevolved / MICcontrol): >1 cross-resistance, <1 collateral sensitivity
Text: Next, we have explored whether laboratory evolved AMP resistance provide any cross-resistance to AMPs which appear to be less prone to resistance. […] We have measured the changes in susceptibilities of these strains to the AMPs (PLEU, PGLA, R8, IND, TPII, and CP1) towards which resistance evolution was limited, as well as to the human peptide LL37. LL37 is a cathelicidin-derived AMP present throughout the human body with critical defensive roles. Cross-resistance was defined as a minimum of twofold increase in resistance level.
(§1) MICs were determined using a standard serial broth dilution technique. Briefly, 11-step serial dilutions were prepared in 96-well microtiter plates with three replicates per strain and antimicrobial compound. Each experiment was repeated at least twice. 5 × 10^5 cells/mL were inoculated into each well, and the plates were incubated at 30 °C in case of E. coli K-12 BW25113, and its antibiotic and AMP-adapted lines, or 37 °C in case of the other bacterial species. Plates were shaken at 300 r.p.m. during incubation for 24 and 18 h, respectively. Cell growth was monitored by measuring the optical density (OD600 value, Biotek Synergy 2 microplate reader was used for this purpose). […] Relative MIC was calculated as follows: MICrelative = MICevolved/MICcontrol.

E. coli ATCC 25922 = conditions: Escherichia coli ATCC 25922; broth dilution, 37 °C, 18 h
Protocol: Unless otherwise indicated, we used E. coli K-12 BW25113 in all high-throughput experiments. To investigate the impact of mutation rate on evolution of AMP resistance, we initiated laboratory evolution with a mutator strain E. coli mutD5 that carries mutations in the dnaQ gene (L73W and A164V).
as §1

Compound: CC[C@H](C)[C@@H]1NC(=O)CNC(=O)[C@H](CCCNC(=N)N)NC(=O)[C@H](Cc2ccc(O)cc2)NC(=O)[C@@H]2CSSC[C@H](NC1=O)C(=O)N[C@@H](Cc1ccc(O)cc1)C(=O)N[C@@H](CCCNC(=N)N)C(=O)N[C@@H](CCCCN)C(=O)N[C@H](C(=O)N[C@@H](CCCNC(=N)N)C(N)=O)CSSC[C@H](NC(=O)[C@H](Cc1c[nH]c3ccccc13)NC(=O)[C@@H](N)CCCNC(=N)N)C(=O)N[C@@H](Cc1ccccc1)C(=O)N[C@@H](CCCNC(=N)N)C(=O)N[C@@H](C(C)C)C(=O)N2 [TPII, tachyplesin II] (HELM PEPTIDE1{R.W.C.F.R.V.C.Y.R.G.I.C.Y.R.K.C.R.[am]}$PEPTIDE1,PEPTIDE1,3:R3-16:R3|PEPTIDE1,PEPTIDE1,7:R3-12:R3$$$V2.0; N-terminus and C-terminus assumed; bridges inferred)
- resistant clones / resistance-conferring DNA segments from the soil metagenomic library (in words) [1]: failed to find DNA segments that would provide resistance
- Number of resistant contig ([1]; soil metagenomic library, 1.5–5 kb fragments, gradient plate, 30 °C, 24 h): 0
- Fold change in minimum inhibitory concentration (MIC) ([2]; AMP-adapted line BAC5_3): 1
- Relative MIC (MICevolved / MICcontrol) ([2]; AMP-adapted line BAC5_3): 1
- Fold change in minimum inhibitory concentration (MIC) ([2]; AMP-adapted line BAC5_5): 1
- Relative MIC (MICevolved / MICcontrol) ([2]; AMP-adapted line BAC5_5): 1
- Fold change in minimum inhibitory concentration (MIC) ([2]; AMP-adapted line BAC5_7): 1.1
- Relative MIC (MICevolved / MICcontrol) ([2]; AMP-adapted line BAC5_7): 1.1
- Fold change in minimum inhibitory concentration (MIC) ([2]; AMP-adapted line BAC5_10): 1.1
- Relative MIC (MICevolved / MICcontrol) ([2]; AMP-adapted line BAC5_10): 1.1
- Fold change in minimum inhibitory concentration (MIC) ([2]; AMP-adapted line CAP18_2): 1.1
- Relative MIC (MICevolved / MICcontrol) ([2]; AMP-adapted line CAP18_2): 1.1
- Fold change in minimum inhibitory concentration (MIC) ([2]; AMP-adapted line CAP18_5): 1
- Relative MIC (MICevolved / MICcontrol) ([2]; AMP-adapted line CAP18_5): 1
- Fold change in minimum inhibitory concentration (MIC) ([2]; AMP-adapted line CAP18_6): 1
- Relative MIC (MICevolved / MICcontrol) ([2]; AMP-adapted line CAP18_6): 1
- Fold change in minimum inhibitory concentration (MIC) ([2]; AMP-adapted line CAP18_8): 1.1
- Relative MIC (MICevolved / MICcontrol) ([2]; AMP-adapted line CAP18_8): 1.1
- Fold change in minimum inhibitory concentration (MIC) ([2]; AMP-adapted line CAP18_10): 1
- Relative MIC (MICevolved / MICcontrol) ([2]; AMP-adapted line CAP18_10): 1
- Fold change in minimum inhibitory concentration (MIC) ([2]; AMP-adapted line HBD3_3): 1.2
- Relative MIC (MICevolved / MICcontrol) ([2]; AMP-adapted line HBD3_3): 1.2
- Fold change in minimum inhibitory concentration (MIC) ([2]; AMP-adapted line HBD3_6): 1.2
- Relative MIC (MICevolved / MICcontrol) ([2]; AMP-adapted line HBD3_6): 1.2
- Fold change in minimum inhibitory concentration (MIC) ([2]; AMP-adapted line HBD3_8): 1.2
- Relative MIC (MICevolved / MICcontrol) ([2]; AMP-adapted line HBD3_8): 1.2
- Fold change in minimum inhibitory concentration (MIC) ([2]; AMP-adapted line HBD3_10): 1.2
- Relative MIC (MICevolved / MICcontrol) ([2]; AMP-adapted line HBD3_10): 1.2
- Fold change in minimum inhibitory concentration (MIC) ([2]; AMP-adapted line LL37_1): 1.1
- Relative MIC (MICevolved / MICcontrol) ([2]; AMP-adapted line LL37_1): 1.1
- Fold change in minimum inhibitory concentration (MIC) ([2]; AMP-adapted line LL37_3): 1.1
- Relative MIC (MICevolved / MICcontrol) ([2]; AMP-adapted line LL37_3): 1.1
- Fold change in minimum inhibitory concentration (MIC) ([2]; AMP-adapted line LL37_6): 1
- Relative MIC (MICevolved / MICcontrol) ([2]; AMP-adapted line LL37_6): 1
- Fold change in minimum inhibitory concentration (MIC) ([2]; AMP-adapted line LL37_7): 1
- Relative MIC (MICevolved / MICcontrol) ([2]; AMP-adapted line LL37_7): 1
- Fold change in minimum inhibitory concentration (MIC) ([2]; AMP-adapted line LL37_10): 1
- Relative MIC (MICevolved / MICcontrol) ([2]; AMP-adapted line LL37_10): 1
- Fold change in minimum inhibitory concentration (MIC) ([2]; AMP-adapted line PEX_1): 1.1
- Relative MIC (MICevolved / MICcontrol) ([2]; AMP-adapted line PEX_1): 1.1
- Fold change in minimum inhibitory concentration (MIC) ([2]; AMP-adapted line PEX_4): 1.2
- Relative MIC (MICevolved / MICcontrol) ([2]; AMP-adapted line PEX_4): 1.2
- Fold change in minimum inhibitory concentration (MIC) ([2]; AMP-adapted line PEX_5): 1.1
- Relative MIC (MICevolved / MICcontrol) ([2]; AMP-adapted line PEX_5): 1.1
- Fold change in minimum inhibitory concentration (MIC) ([2]; AMP-adapted line PEX_6): 1
- Relative MIC (MICevolved / MICcontrol) ([2]; AMP-adapted line PEX_6): 1
- Fold change in minimum inhibitory concentration (MIC) ([2]; AMP-adapted line PEX_7): 1
- Relative MIC (MICevolved / MICcontrol) ([2]; AMP-adapted line PEX_7): 1
- Fold change in minimum inhibitory concentration (MIC) ([2]; AMP-adapted line PR39_1): 1
- Relative MIC (MICevolved / MICcontrol) ([2]; AMP-adapted line PR39_1): 1
- Fold change in minimum inhibitory concentration (MIC) ([2]; AMP-adapted line PR39_2): 0.9
- Relative MIC (MICevolved / MICcontrol) ([2]; AMP-adapted line PR39_2): 0.9
- Fold change in minimum inhibitory concentration (MIC) ([2]; AMP-adapted line PR39_5): 0.9
- Relative MIC (MICevolved / MICcontrol) ([2]; AMP-adapted line PR39_5): 0.9
- Fold change in minimum inhibitory concentration (MIC) ([2]; AMP-adapted line PR39_7): 0.9
- Relative MIC (MICevolved / MICcontrol) ([2]; AMP-adapted line PR39_7): 0.9
- Fold change in minimum inhibitory concentration (MIC) ([2]; AMP-adapted line PR39_10): 0.9
- Relative MIC (MICevolved / MICcontrol) ([2]; AMP-adapted line PR39_10): 0.9
- Fold change in minimum inhibitory concentration (MIC) ([2]; AMP-adapted line PROA_2): 1.1
- Relative MIC (MICevolved / MICcontrol) ([2]; AMP-adapted line PROA_2): 1.1
- Fold change in minimum inhibitory concentration (MIC) ([2]; AMP-adapted line PROA_3): 0.8
- Relative MIC (MICevolved / MICcontrol) ([2]; AMP-adapted line PROA_3): 0.8
- Fold change in minimum inhibitory concentration (MIC) ([2]; AMP-adapted line PROA_7): 1
- Relative MIC (MICevolved / MICcontrol) ([2]; AMP-adapted line PROA_7): 1
- Fold change in minimum inhibitory concentration (MIC) ([2]; AMP-adapted line PROA_8): 1
- Relative MIC (MICevolved / MICcontrol) ([2]; AMP-adapted line PROA_8): 1
- Fold change in minimum inhibitory concentration (MIC) ([2]; AMP-adapted line PROA_9): 1.1
- Relative MIC (MICevolved / MICcontrol) ([2]; AMP-adapted line PROA_9): 1.1
- Fold change in minimum inhibitory concentration (MIC) ([2]; AMP-adapted line PXB_2): 1.1
- Relative MIC (MICevolved / MICcontrol) ([2]; AMP-adapted line PXB_2): 1.1
- Fold change in minimum inhibitory concentration (MIC) ([2]; AMP-adapted line PXB_5): 1
- Relative MIC (MICevolved / MICcontrol) ([2]; AMP-adapted line PXB_5): 1
- Fold change in minimum inhibitory concentration (MIC) ([2]; AMP-adapted line PXB_6): 1.1
- Relative MIC (MICevolved / MICcontrol) ([2]; AMP-adapted line PXB_6): 1.1
- Fold change in minimum inhibitory concentration (MIC) ([2]; AMP-adapted line PXB_8): 1
- Relative MIC (MICevolved / MICcontrol) ([2]; AMP-adapted line PXB_8): 1
- Fold change in minimum inhibitory concentration (MIC) ([2]; AMP-adapted line PXB_10): 1.1
- Relative MIC (MICevolved / MICcontrol) ([2]; AMP-adapted line PXB_10): 1.1
- cross-resistance of the 38 AMP-resistant lines to the AMP (in words) ([2]; cross-resistance = minimum of twofold increase in resistance level): none of the 38 AMP-resistant lines displayed cross-resistance; also recorded: no cross-resistance

Compound: SWLSKTAKKLENSAKKRISEGIAIAIQGGPR [CP1, Cecropin P1]
- MIC (E. coli ATCC 25922): 1.2 µM

Source: article PMC6778101 (Nature Communications, 2019)
